# Source: patent publication US11479587B2, “Cationic intrinsically disordered antimicrobial peptides” (priority 2016, dated 2022)
# Where “and” joins values, the source holds several entries; their conditions need not be identical. Identical values can stand only once. Residues, ends and D or L forms follow the SMILES beside them. Primed or numbered codes have the meaning given here. No end group written: not given here. FITC′ = fluorescein isothiocyanate
# Tests used:
# P. aeruginosa ATCC 10145 = assay: CFU-assay, P. aeruginosa-cidal activity; assay type: cell-based, Pseudomonas aeruginosa
# [1] = system: Candida albicans ATCC 24433; assay: CFU-assay, Candida albicans-cidal activity; assay type: cell-based
# Procedure: Thus, within the present invention, the antimicrobial activity is generally measured in nutrient deficient 10 mM sodium phosphate buffer pH 5.5, containing 0.25% glucose, using the CFU-assay according to Steinberg and Lehrer, 1997 (supra), unless otherwise indicated. The CFU-assay allows determination of the minimal bactericidal concentration (MBC, e.g., MBC90 and MBC100; i.e. the concentration of compound required to achieve a specified reduction in bacterial cell number (microbial death or killing)). […]
# HR 1-17 affects C. albicans ATCC 24433 with highest activity at pH 5.5 in the absence of TSB in the medium (see Tables 12, 24). […] Furthermore, the substitution of any of the Arg residues by Gly leads to a dramatic reduction or loss of candidacidal activity (see Table 24).
# [2] = system: methicillin-resistant S. aureus strain (ATCC 43300); assay type: cell-based, Staphylococcus aureus; settings: ATCC 43300, 18 h
# Procedure: Furthermore, sensitivity of a methicillin-resistant S. aureus strain (ATCC 43300) was investigated for palmitoylated CIDAMPs in a microtiter plate screening model, with incubation in Mueller-Hinton medium at 37° C. for 18 h using resazurin as a marker for cell viability.
# A sample of each culture was then diluted 40-fold in fresh broth and incubated at 37° C. for 1.5-3 h. […] All the plates were covered and incubated at 37° C. for 18 h.
# Inhibition of bacterial growth was determined using resazurin as a marker for cell viability. Resazurin was added to each well, at 0.001% final concentration, and plates incubated at 37° C. for 2 h. Fluorescence intensity was measured, using F (top read), ex 560/10 nm, em 590/10 nm, using a Tecan M1000 Pro monochromator plate reader.
# [3] = Cytotoxicity (resazurin) assay
# Procedure: For the cytotoxicity (resazurin) assay, HEK293 cells were counted manually in a Neubauer haemocytometer and plated at a density of 4000 cells/well into each well of the 384-well plates containing the 25×(2 μl) concentrated compounds. The medium used was Dulbecco's modified eagle medium (DMEM) supplemented with 10% foetal bovine serum (FBS). Cells were incubated together with the compounds for 20 h at 37° C., 5% CO2. To measure cytotoxicity, 5 μl (equals 100 μM final) resazurin was added to each well after incubation, and incubated for further 3 h at 37° C. with 5% CO2.
# After final incubation fluorescence intensity was measured as F ex 560/10 nm, em 590/10 nm (F560/590) using a Tecan M1000 Pro monochromator plate reader. […] The concentration dependent percentage cytotoxicity was fitted to a dose response function (using Pipeline Pilot) and CC50 values determined.
# Hemolysis assay = assay type: cell-based
# Procedure: For the hemolysis assays EDTA-blood was centrifuged at 800×g for 10 min, and the plasma and buffy coat were removed. The erythrocytes were washed three times and resuspended in 5% PBS, pH 7.4. The cells were then incubated with end-over-end rotation for 1 h at 37° C. in the presence of different concentrations of peptides (0, 3, 10, 30, 60 μm). 0.1% Triton X-100 (Sigma-Aldrich) served as positive control. The samples were then centrifuged at 800×g for 10 min.
# The absorbance of hemoglobin release was measured at 540 nm and is expressed as % of Triton X-100-induced hemolysis. These values of triplicates were plotted with Graph Pad Prism 4 as a dose response curve and the CC50 was determined.
# C. albicans ATCC 928 = settings: ATCC 928, 18 h, pH 7.4
# S. aureus ATCC 6538 = assay: CFU-assay, S. aureus-cidal activity; assay type: cell-based, Staphylococcus aureus; settings: pH 5.5, 0.25% glucose
# Procedure: Thus, within the present invention, the antimicrobial activity is generally measured in nutrient deficient 10 mM sodium phosphate buffer pH 5.5, containing 0.25% glucose, using the CFU-assay according to Steinberg and Lehrer, 1997 (supra), unless otherwise indicated. The CFU-assay allows determination of the minimal bactericidal concentration (MBC, e.g., MBC90 and MBC100; i.e. the concentration of compound required to achieve a specified reduction in bacterial cell number (microbial death or killing)).
# Various peptides corresponding to repeat domains of hornerin (HR 1-11: HRNR 2606-2628; HR 1-17: HRNR 2656-2684 and HR 1-18: HRNR 2656-2677) were tested for P. aeruginosa ATCC 10145-cidal activity in 10 mM Na-phosphate buffer pH 5.5, containing 0.25% glucose by counting the numbers of colonies of surviving bacteria at serial, twofold dilutions from 300 μg/ml down to 19 ng/ml of each peptide (CFU-assay; Steinberg and Lehrer, 1997, Methods Mol. Biol. 78, 169-186).
# Staphylococcus aureus is a major skin pathogen, which causes skin infections, in particular in atopic dermatitis. The sensitivity of S. aureus ATCC 6538 towards several CIDAMPs was assessed using the CFU-assay as above (see Example 1). HR 1-18, which lacks S. aureus.-bactericidal activity, is converted in a S. aureus-cidal peptide, when all His are replaced by Arg (HR 1-18 4H-4R; see Table 13 and FIG. 9). […] HR 1-18 4H-4R is rich in Ser and Arg and contains a single Leu residue. When this single Leu was replaced by Gly in S. aureus-cidal HR 1-18 4H-4R (forming HR 1-18 4H-4R/L-G), S. aureus-cidal activity was abolished at both pH 7.0 and pH 5.5 (see Table 13 and FIG. 9).
compound,measurement,setting,value
GRHGSGLGHSSSHGQHGSGSGRSSSGGPY (Modified peptide derived from human hornerin (HR 1-17 R2681G)),MBC90,"P. aeruginosa ATCC 10145; pH 5.0, 0.25% glucose",0.0375 µg/mL
same,MBC100,"P. aeruginosa ATCC 10145; pH 5.0, 0.25% glucose",0.15 to 0.3 µg/mL
same,MBC90,"[1]; pH 5.5, 1% TSB",300 µg/mL
same,MBC100,"[1]; pH 5.5, 1% TSB",>300 µg/mL
SHHRHFRSHQCRR [LCE3C55 67],"MIC, S. aureus ATCC 43300",[2],≥32 µg/mL
same,"MIC, C. neoformans ATCC 208821",C. neoformans,≥8 µg/mL
GRHGSGLGHSSSHGQHGSGSGGSSSRGPY (Modified peptide derived from human hornerin (HR 1-17 R2677G)),MBC90,"P. aeruginosa ATCC 10145; pH 5.0, 0.25% glucose",0.0375 µg/mL
same,MBC100,"P. aeruginosa ATCC 10145; pH 5.0, 0.25% glucose",0.15 µg/mL
same,MBC90,"[1]; pH 5.5, 1% TSB",300 µg/mL
same,MBC100,"[1]; pH 5.5, 1% TSB",>300 µg/mL
CCCCCCCCCCCCCCCC(=O)NCC(=O)N[C@@H](CCCNC(=N)N)C(=O)N[C@@H](CCCNC(=N)N)C(=O)NCC(=O)NCC(=O)N[C@@H](CCCNC(=N)N)C(=O)NCC(=O)NCC(=O)N[C@@H](CCCNC(=N)N)C(=O)O [Pal-GR9] (HELM PEPTIDE1{[CCCCCCCCCCCCCCCC(=O)[*:2]].G.R.R.G.G.R.G.G.R}$$$$V2.0),"MIC, S. aureus ATCC 43300",[2],≥8 µg/mL
same,CC50,[3],> 32 µg/mL and > 27.4 µM
same,HC50,Hemolysis assay,> 300 µg/mL
same,HC50 at 1 h,"Hemolysis assay; human, washed erythrocytes from EDTA-blood, pH 7.4",> 257 µM
same,MIC,C. albicans ATCC 928,1 to 32 µg/mL
HGSRSGQSSRGERHGSSSGSSSH (Peptide derived from human hornerin (HR 1-11)),MBC90,"P. aeruginosa ATCC 10145; pH 5.0, 0.25% glucose",0.075 µg/mL
same,MBC100,"P. aeruginosa ATCC 10145; pH 5.0, 0.25% glucose",2.35 µg/mL
same,MBC100,"P. aeruginosa ATCC 10145; pH 5.5, 0.25% glucose",2.35 µg/mL
same,MBC90,"P. aeruginosa ATCC 10145; pH 5.5, 1% TSB",2.35 µg/mL
same,MBC100,"P. aeruginosa ATCC 10145; pH 5.5, 1% TSB",>300 µg/mL
same,MBC90,"[1]; pH 5.5, 0.25% glucose",9.38 µg/mL
same,MBC100,"[1]; pH 5.5, 0.25% glucose",150 µg/mL
CCCCCCCCCCCCCCCC(=O)N[C@@H](Cc1c[nH]cn1)C(=O)NCC(=O)N[C@@H](CO)C(=O)N[C@@H](CCCNC(=N)N)C(=O)N[C@@H](CO)C(=O)NCC(=O)N[C@@H](CCC(N)=O)C(=O)N[C@@H](CO)C(=O)N[C@@H](CO)C(=O)N[C@@H](CCCNC(=N)N)C(=O)NCC(=O)N[C@@H](CCC(=O)O)C(=O)N[C@@H](CCCNC(=N)N)C(=O)N[C@@H](Cc1c[nH]cn1)C(=O)NCC(=O)N[C@@H](CO)C(=O)N[C@@H](CO)C(=O)N[C@@H](CO)C(=O)NCC(=O)N[C@@H](CO)C(=O)N[C@@H](CO)C(=O)N[C@@H](CO)C(=O)N[C@@H](Cc1c[nH]cn1)C(=O)O [Pal-HR 1-11] (HELM PEPTIDE1{[CCCCCCCCCCCCCCCC(=O)[*:2]].H.G.S.R.S.G.Q.S.S.R.G.E.R.H.G.S.S.S.G.S.S.S.H}$$$$V2.0),"MIC, S. aureus ATCC 43300",[2],>32 µg/mL
same,CC50,[3],> 32 µg/mL
FITC-GRHGSGLGHSSSHGQHGSGSGR ({FITC′}-GRHGSGLGHSSSHGQHGSGSGR) [FITC-HR 1-18],MBC90,"P. aeruginosa ATCC 10145; pH 5.0, 0.25% glucose",0.15 µg/mL
same,MBC100,"P. aeruginosa ATCC 10145; pH 5.0, 0.25% glucose",1.18 µg/mL
same,MBC90,S. aureus ATCC 6538,300 µg/mL
same,MBC100,S. aureus ATCC 6538,>300 µg/mL
same,MBC90,"[1]; pH 5.5, 0.25% glucose",2.35 µg/mL
same,MBC100,"[1]; pH 5.5, 0.25% glucose",75 µg/mL
